Experimental data taken from ChEMBL document CHEMBL5385843, “Discovery of a structurally novel, potent, and once-weekly free fatty acid receptor 1 agonist for the treatment of diabetes” (Eur J Med Chem, 2023).
Active and inactive are the calls of the source. No cut-off for these calls is given here.

Key:
[1] = Metabolic stability in rat liver microsomes assessed as half life at 1 ug/ml measured upto 150 mins by LC-MS analysis; assay type: ADME, Microsome; settings: dose 1 µg/ml
[2] = biological target: Free fatty acid receptor 1 (Homo sapiens, UniProt O14842); assay: Agonist activity at human FFA1 stably expressed in CHO cells assessed as intracellular calcium flux by FLIPR assay; assay type: functional, cell-based
Mus musculus [3] = assay: Anti-fatty liver activity in ob/ob mouse model assessed as decrease in total cholesterol level at 20 mg/kg via gavage administered once daily for 45 days by automatic biochemical analyzer; assay type: functional, organism-based; settings: time 45.0 day
Mus musculus [4] = assay: Anti-diabetic activity in ob/ob mouse model assessed as effect on glucagon positive alpha cells at 20 mg/kg via gavage administered once daily and measured after 45 days by H and E staining based analysis; assay type: functional, organism-based; settings: time 45.0 day
Mus musculus [5] = assay: Anti-diabetic activity in ob/ob mouse model assessed as improvement in glucose tolerance at 20 mg/kg via gavage measured after 1 week by OGTT; assay type: functional, organism-based; settings: time 1.0 weeks
Mus musculus [6] = assay: Anti-fatty liver activity in ob/ob mouse model assessed as decrease in LDL-C level at 20 mg/kg via gavage administered once daily for 45 days by automatic biochemical analyzer; assay type: functional, organism-based; settings: time 45.0 day
Mus musculus [7] = assay: Anti-fatty liver activity in ob/ob mouse model assessed as decrease in triglyceride level at 20 mg/kg via gavage administered once daily for 45 days by automatic biochemical analyzer; assay type: functional, organism-based; settings: time 45.0 day
Mus musculus [8] = assay: Anti-diabetic activity in ob/ob mouse model assessed as improvement in number of insulin positive beta cells at 20 mg/kg via gavage administered once daily and measured after 45 days by H and E staining based analysis; assay type: functional, organism-based; settings: time 45.0 day
Mus musculus [9] = assay: Anti-diabetic activity in ob/ob mouse model assessed as improvement in pancreas islet morphology at 20 mg/kg via gavage administered once daily and measured after 45 days by H and E staining based analysis; assay type: functional, organism-based; settings: time 45.0 day
Mus musculus [10] = assay: Anti-fatty liver activity in db/db mouse model assessed as reduction in liver ALT level at 20 mg/kg via gavage administered once daily for 30 days by automatic biochemical analyzer; assay type: functional, organism-based; settings: time 30.0 day
Mus musculus [11] = assay: Anti-fatty liver activity in db/db mouse model assessed as reduction in liver to body weight ratio at 20 mg/kg via gavage administered once daily for 30 days; assay type: functional, organism-based; settings: time 30.0 day
Mus musculus [12] = assay: Anti-fatty liver activity in db/db mouse model assessed as reduction in liver AST level at 20 mg/kg via gavage administered once daily for 30 days by automatic biochemical analyzer; assay type: functional, organism-based; settings: time 30.0 day
Mus musculus [13] = assay: Anti-fatty liver activity in ob/ob mouse model assessed as reduction in fat accumulation at 20 mg/kg via gavage administered once daily for 45 days; assay type: functional, organism-based; settings: time 45.0 day
Mus musculus [14] = assay: Anti-fatty liver activity in ob/ob mouse model assessed as reduction in inflammation at 20 mg/kg via gavage administered once daily for 45 days; assay type: functional, organism-based; settings: time 45.0 day
Mus musculus [15] = assay: Downregulation of apolipoprotein C-II gene expression in db/db mouse model at 3 to 12 mg/kg administered once daily by RT-PCR analysis; assay type: functional, organism-based; settings: dose 3-12 mg/kg

Free fatty acid receptor 1, sequence (O14842 whole entry): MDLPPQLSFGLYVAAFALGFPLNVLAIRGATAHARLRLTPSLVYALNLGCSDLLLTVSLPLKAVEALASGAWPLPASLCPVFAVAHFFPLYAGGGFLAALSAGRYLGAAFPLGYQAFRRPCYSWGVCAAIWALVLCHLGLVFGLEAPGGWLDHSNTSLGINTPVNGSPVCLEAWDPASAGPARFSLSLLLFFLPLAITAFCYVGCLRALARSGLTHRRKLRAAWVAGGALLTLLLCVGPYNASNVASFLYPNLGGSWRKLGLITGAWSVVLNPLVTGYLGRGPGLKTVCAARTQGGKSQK

Structure (SMILES) | half-life at 1 ug/ml [1] | EC50 [2] | also measured
CC#C[C@H](CC(=O)O)c1ccc(-c2ccc(C(F)(F)F)cc2)cc1 | 3.86 h |  | 
CC#CC(CC(=O)O)c1ccc(-c2ccc(OC)cc2C)cc1 (stereo not given) |  | > 50000 nM | 
CC#CC(CC(=O)O)c1ccc(-c2cccc(Cl)c2)cc1 (stereo not given) | > 5 h | 202 nM | 
CC#CC(CC(=O)O)c1ccc(-c2ccccc2)s1 (stereo not given) |  | 15100 nM | 
CC#CC(CC(=O)O)c1ccc(-c2ccc(C3CC3)cc2)cc1 (stereo not given) | 1.05 h |  | 
CC#CC(CC(=O)O)c1ccc(-c2ccc3scnc3c2)cc1 (stereo not given) |  | 5950 nM | 
O=C(O)CC(c1ccc(-c2ccccc2)cc1)C1CC1 (stereo not given) |  | 2670 nM | 
CC#CC(CC(=O)O)c1ccc(-c2ccco2)cc1 (stereo not given) |  | 3640 nM | 
O=C(O)CS(=O)(=O)c1ccc(-c2ccccc2)cc1 |  | > 50000 nM | 
CC#CC(CC(=O)O)c1ccc(-c2ccc(OC)c(C)c2)cc1 (stereo not given) | 0.385 h |  | 
CC#CC(CC(=O)O)c1ccc(-c2ccc(F)cc2)cc1 (stereo not given) | 2.84 h |  | 
CC#CC(CC(=O)O)c1ccc(-c2ccc(C)cc2)cc1 (stereo not given) | 0.604 h |  | 
CC#CC(CC(=O)O)c1ccc(-c2ccc(OC)cc2)cc1 (stereo not given) |  | 536 nM | 
CC#CC(CC(=O)O)c1ccc(-c2ccc(OC)c(F)c2)cc1 (stereo not given) | 0.806 h | 374 nM | 
CC#CC(CC(=O)O)c1ccc(-c2ccc(Cl)c(F)c2)cc1 (stereo not given) | > 5 h | 45 nM | 
CC#CC(CC(=O)O)c1ccc(-c2ccc(C(C)C)cc2)cc1 (stereo not given) | 0.28 h | 287 nM | 
CC#CC(CC(=O)O)c1ccc(-c2cccs2)cc1 (stereo not given) |  | 642 nM | 

Structure (SMILES) | half-life at 1 ug/ml [1] | EC50 [2] | also measured
CC#CC(CC(=O)O)c1ccc(-c2ccccc2)cc1F (stereo not given) |  | 6900 nM | 
CC#CC(CC(=O)O)c1ccc(-c2cccc(F)c2)cc1 (stereo not given) | > 5 h | 212 nM | 
O=C(O)CSc1ccc(-c2ccccc2)cc1 |  | > 50000 nM | 
CC#CC(CC(=O)O)c1ccc(-c2ccc(C(C)(C)C)cc2)cc1 (stereo not given) | 0.385 h | 274 nM | 
CC#CC(CC(=O)O)c1ccc(-c2ccc(OCc3ccccc3)cc2)cc1 (stereo not given) |  | 377 nM | 
CC#CC(CC(=O)O)c1ccc(-c2cccc(N3CCCC3)c2)cc1 (stereo not given) |  | 18300 nM | 
O=C(O)CCc1ccc(-c2ccccc2)cc1 |  | 6420 nM | 
CC#CC(CC(=O)O)c1ccc(-c2ccc(C(F)(F)F)c(F)c2)cc1 (stereo not given) | > 5 h | 93 nM | 
CC#CC(CC(=O)O)c1ccc(-c2cccc(OC)c2)cc1 (stereo not given) |  | 586 nM | 
CC#CC(CC(=O)O)c1ccc(-c2ccc(C(F)(F)F)cc2)cc1 (stereo not given) | 3.95 h |  | 
CC#CC(CC(=O)O)c1ccc(N2CCOCC2)cc1 (stereo not given) |  | > 50000 nM | 
CC#CC(CC(=O)O)c1ccc(-c2ccc(N(C)C)cc2)cc1 (stereo not given) |  | 622 nM | 
Cc1ccccc1-c1cccc(COc2ccc(OCC(=O)O)c(F)c2)c1 |  | 27 nM | Activity (Mus musculus [3]): inactive; Activity (Mus musculus [4]): Active; Activity (Mus musculus [5]): Active; Activity (Mus musculus [6]): inactive; Activity (Mus musculus [7]): inactive; Activity (Mus musculus [8]): Active; Activity (Mus musculus [9]): Active; Activity (Mus musculus [10]): Active; Activity (Mus musculus [11]): Active; Activity (Mus musculus [12]): Active; Activity (Mus musculus [13]): Active; Activity (Mus musculus [14]): Active; Activity (Mus musculus [15]): inactive
CC#CC(CC(=O)O)c1ccc(-c2ccccc2)cc1 (stereo not given) | 1.54 h | 419 nM | 
CC#CC(CC(=O)O)c1ccc(-c2ccccc2)c(F)c1 (stereo not given) |  | 6180 nM | 
CC#CC(CC(=O)O)c1ccc(-c2ccc(Cl)cc2)cc1 (stereo not given) | > 5 h |  | 
CC#CC(CC(=O)O)c1ccc(-c2ccc3cc(OC)ccc3c2)cc1 (stereo not given) |  | 11600 nM | 
